According to patent publication US20260327211A1, “MODULATORS OF A POTASSIUM CHANNEL AND OF TRPV1 CHANNEL AND USES THEREOF” (Bsense Bio Therapeutics Ltd., priority 2023, published 2026):

Legend:
[1] = tested on: Chronic Post-Ischemia Pain (CPIP) rats; assay: Chronic Post-Ischemia Pain (CPIP) model, von Frey; type: in vivo, rat; details: 100 mg/kg oral, 6 hours post-dose
Description: (§1) All animal experiments were carried out according to the Guide for the Care and Use of Laboratory Animals (2011 edition) and approved by the Israel National Institutional Animal Care and Use Committee (IACUC). Young adult male SD rats (Envigo RMS, Israel), were used for in vivo efficacy: Spared Nerve Injury (SNI), Distal Tibial Injury (DTI) and Post-operative Pain (POP), 200-220 grams, Chronic Post-Ischemia Pain (CPIP) 275-325 grams, Monosodium iodoacetate-induced osteoarthritis (MIA-OA) 180-220 grams; for in vivo safety: 200-250 grams at study initiation. […] The health status of the animals used in this study was examined upon their arrival. Only animals in good health were acclimatized to laboratory conditions and were used in the studies. All studies were performed following at least five days of animal acclimation. During acclimation and throughout the entire study duration, animals were housed within a limited-access rodent facility and kept in groups with a maximum of 2-3 rats per polypropylene cage. The cages were fitted with solid bottoms and filled with sterile wood shavings as bedding material. […] Water was monitored periodically. […]
On study day 14, the animal's response to von Frey filaments was measured. […]

[2] = tested on: Post-operative Pain (POP) rats; assay: Post-operative Pain model, thermal; type: in vivo, rat; details: 100 mg/kg, 6 hours post-dose
Description: as §1, with “acclimation.” for “acclimation. During acclimation and throughout the entire study duration, animals were housed within a limited-access rodent facility and kept in groups with a maximum of 2-3 rats per polypropylene cage. The cages were fitted with solid bottoms and filled with sterile wood shavings as bedding material.”
Post-operative Pain (POP): For this model, animals were anesthetized by medetomidine/ketamine sodium IP. […] On the following day, animal responses to von Frey (VF) filaments and hot-plate testing were recorded.
Hot Plate: Animals were placed on hot plate analgesia meter (IITC Life Science Inc., CA, USA) set to 53±1° C., and the time until the first escape response was observed was recorded. […]

[3] = biological target: T1, 5-HT1B (Homo sapiens, UniProt P28222); assay: Functional selectivity panel, 5-HT1B; type: biochemical
T1 construct: Eurofins DiscoverX, USA
Description: (§2) A broad panel of 78 recombinant targets was tested for pharmacologic activity in vitro through a variety of functional assays (Eurofins DiscoverX, USA), as part of the National Institute of Neurological Disorders and Stroke (NINDS) Preclinical Screening Platform for Pain (PSPP) program. The biological targets for the in vitro profiling have been selected based on avoiding opioid receptor stimulation and targets known to be associated with adverse events or targeted by drugs of abuse. […] For each test, a reference compound was evaluated at the target of interest as a positive control.

[4] = tested on: NMDA; assay: Functional selectivity panel, NMDA; type: biochemical; details: up to 10 micromolar
Description: as §2

[5] = tested on: Dopamine D1-D5; assay: Functional screening panel, Dopamine D1-D5; type: biochemical; details: up to 10 micromolar
Description: as §2

[6] = biological target: P-gp (Homo sapiens, UniProt P08183); assay: Transporter substrate, P-gp; type: in vitro ADME; details: role: substrate
Description: Additionally, compound 760 was tested for its capability to act as a transporter substrate for various transporters, and was not found to be a transporter substrate for any of the tested transporters.

T1 sequence (P28222 whole entry): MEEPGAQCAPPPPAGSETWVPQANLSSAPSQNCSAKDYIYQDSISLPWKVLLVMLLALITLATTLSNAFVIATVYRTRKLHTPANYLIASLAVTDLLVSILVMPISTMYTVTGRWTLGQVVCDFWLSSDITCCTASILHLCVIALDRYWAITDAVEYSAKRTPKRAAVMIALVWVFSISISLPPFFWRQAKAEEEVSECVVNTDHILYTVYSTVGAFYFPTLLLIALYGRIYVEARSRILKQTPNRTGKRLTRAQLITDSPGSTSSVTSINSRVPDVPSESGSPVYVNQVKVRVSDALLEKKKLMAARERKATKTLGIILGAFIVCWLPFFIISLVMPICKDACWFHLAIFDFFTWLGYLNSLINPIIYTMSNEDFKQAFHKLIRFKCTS
Sequence of P-gp (P08183 whole entry): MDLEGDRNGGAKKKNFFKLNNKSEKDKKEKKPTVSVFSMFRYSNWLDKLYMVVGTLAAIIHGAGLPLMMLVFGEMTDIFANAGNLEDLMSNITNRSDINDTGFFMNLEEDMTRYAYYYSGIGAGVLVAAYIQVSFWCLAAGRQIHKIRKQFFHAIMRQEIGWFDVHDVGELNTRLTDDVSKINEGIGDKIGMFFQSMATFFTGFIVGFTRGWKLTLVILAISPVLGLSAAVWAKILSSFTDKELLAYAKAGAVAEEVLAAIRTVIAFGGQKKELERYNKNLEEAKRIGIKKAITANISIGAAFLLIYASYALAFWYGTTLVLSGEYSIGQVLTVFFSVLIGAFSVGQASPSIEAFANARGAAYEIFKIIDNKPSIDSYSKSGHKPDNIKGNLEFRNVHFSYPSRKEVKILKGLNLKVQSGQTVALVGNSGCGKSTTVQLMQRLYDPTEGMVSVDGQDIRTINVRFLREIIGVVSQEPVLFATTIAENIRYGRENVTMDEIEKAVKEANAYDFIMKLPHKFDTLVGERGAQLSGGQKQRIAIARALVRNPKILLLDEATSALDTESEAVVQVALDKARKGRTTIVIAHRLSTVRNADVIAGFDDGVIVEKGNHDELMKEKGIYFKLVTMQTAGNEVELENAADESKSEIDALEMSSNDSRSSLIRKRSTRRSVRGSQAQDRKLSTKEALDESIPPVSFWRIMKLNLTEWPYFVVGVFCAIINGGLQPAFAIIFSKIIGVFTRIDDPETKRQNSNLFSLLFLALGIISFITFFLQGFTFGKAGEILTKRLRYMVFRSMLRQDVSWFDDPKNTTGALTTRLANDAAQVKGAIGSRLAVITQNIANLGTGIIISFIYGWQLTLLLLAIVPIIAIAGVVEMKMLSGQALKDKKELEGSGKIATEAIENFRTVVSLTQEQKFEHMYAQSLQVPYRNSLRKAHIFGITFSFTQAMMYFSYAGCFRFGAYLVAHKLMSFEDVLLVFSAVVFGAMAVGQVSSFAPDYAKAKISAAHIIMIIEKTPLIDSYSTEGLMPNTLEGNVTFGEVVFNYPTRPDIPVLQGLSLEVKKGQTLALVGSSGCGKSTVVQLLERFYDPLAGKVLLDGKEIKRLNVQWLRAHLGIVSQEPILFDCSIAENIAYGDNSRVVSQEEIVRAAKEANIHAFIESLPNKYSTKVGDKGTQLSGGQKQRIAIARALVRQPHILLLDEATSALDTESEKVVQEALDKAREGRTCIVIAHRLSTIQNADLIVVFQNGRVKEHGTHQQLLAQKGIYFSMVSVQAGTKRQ

Row | IC50 [3] [µM] | Structure (SMILES) | Reversal of mechanical PWT [1] [%] | Thermal withdrawal latency [2] | Effect on NMDA [4] | Effect on Dopamine D1-D5 [5] | P-gp substrate [6]
1 | 10 | O=C(Cc1cncc(-n2cc(Cl)c3cc(Cl)cc(Cl)c32)c1)N[C@@H]1COC[C@H]1O [Compound 661] | 27.6 | completely reversed | – | – | –
2 | – | O=C(Cc1nccc(-n2cc(Cl)c3cc(Cl)cc(Cl)c32)n1)NC1COCC1O (stereo not drawn) [Compound 760] | – | – | no effect | no effect | not a transporter substrate or a poor substrate
